{"source": "patent US20180344715A1", "about": "“WNT/BETA-CATENIN SIGNAL TRANSDUCTION INHIBITORS AND THEIR USE IN TREATMENT OR PREVENTION OF DISEASES AND CONDITIONS LINKED WITH SAID TRANSDUCTION” (BERGEN TEKNOLOGIOVERFORING AS, priority 2015, published 2018)", "key": {"[1]": {"test_system": "β-catenin", "assay": "Immunofluorescence staining of β-catenin in SW480 cells", "type": "cell-based", "settings": "SW480, 5 μM, 24 hours", "description": "Cells were seeded singly on 12 mm glass coverslips in 24-well plates. At the second day, cells were washed with PBS, fixed in 4% PBS buffered paraformaldehyde at room temperature for 20 minutes, permeabilized in 0.5% Triton X-100 for 10 minutes, blocked in 100 mM glycine for 5 minutes and with PBS wash between each step. After blocking with 0.5% BSA/PBS for 15 minutes, cells were incubated with primary antibodies (β-catenin, ab16051, 1:1000, Abcam; Ki67, ab16667, clone SP6, 1:50, Abcam) in 0.5% BSA/PBS for 1 hour at room temperature. The FITC-labelled secondary antibody (Southern Biotech, 4050-02) was added for 45 minutes at room temperature. Coverslips were mounted in SlowFade® Diamond Antifade Mountant with DAPI (Life Technologies, S36964) on glass slides. Images were captured using the Qcapture Suite software with a Qimaging Exi Blue camera attached to a Leica DMRBE microscope."}, "[2]": {"test_system": "β-catenin", "assay": "Western blotting of β-catenin in SW480 cells", "type": "cell-based", "procedure": "Culture cells were lysed in RIPA buffer (50 mM Tris-HCl, pH 7.4, 150 mM NaCl, 1% NP-40, 0.5% sodium deoxycholate, 0.1% SDS, 1 mM EDTA) containing freshly added protease inhibitors (Roche, 11836153001). Protein lysates were resolved in Novex 10% BisTris MiniGels (Life technologies, NP0303BOX) and transferred onto PVDF membranes with Pierce 1-Step Transfer Buffer (Thermo Fisher Scientific, 84731). Membranes were developed by using Pierce Fast Western Blot Kit with ECL Substrate (Thermo Fisher Scientific, 35050) and primary antibodies (β-catenin, ab16051, 1:2000 Abcam; GAPDH, ab181602, clone EPR16891, 1:20000, Abcam; hemagglutinin, ab9134, 1:2000, Abcam; FLAG, ab1162, 1:1000, Abcam; ubiquitin, ab7254, clone Ubi-1, 1:5000, Abcam; SHPRH, ab80129, 1:1000, Abcam; non-phospho-(active) β-catenin (Ser33/37/Thr41), 4270, 1:1000, Cell Signaling Technology; phospho-3-catenin (Ser33/37/Thr41), 9561, 1:1000, Cell Signaling Technology; β-catenin-Thr41/Ser45, 9565, 1:1000, Cell Signaling Technology; MED23, BD550429, clone D27-1805, 1:500, BD Biosciences). Proteins were visualized and captured by a ChemiDOC XRS system and Quantity One software (Bio-Rad Laboratories)."}, "[3]": {"test_system": "β-catenin", "assay": "In vivo ubiquitination assay in SW480 cells", "type": "cell-based", "settings": "SW480, with proteasome inhibitor MG132, 6 hours", "procedure": "Cells were harvested and re-suspended with 100 μl ice cold TBS (50 mM Tris-HCL pH 8.0, 150 mM NaCl) containing 2 μM N-Ethylmaleimide crystalline that was supplemented to all the following buffers. After adding 120 μl TBS containing 2% SDS and mixing quickly, cells were heated at 98° C. for 10 minutes and placed immediately on ice for 5 minutes. Cell lysates were incubated with 1.8 ml TBS containing 1% Triton X-100 and 3 μg antibody (β-catenin ab22656, clone 12F7, Abcam; SHPRH, ab80129, Abcam), at 4° C. overnight followed by incubation with 100 μl Protein G beads (Life technologies, 10004D) at 4° C. for 1 hour on rotator. Beads were collected with Magnet and serially washed once with 1 ml TBS containing 1% Triton X-100/0.1% SDS, twice with 1 ml TBS containing 0.5M LiCl and once with 1 ml TBS containing 1% Triton X-100. Following addition of 80 μl 2% SDS sample buffer containing 10 mM DTT (Sigma, D9779), the beads were boiled at 98° C. for 5 minutes and collected with Magnet, the supernatant was analyzed by Western blotting."}, "[4]": {"test_system": "HCT116 cells", "assay": "Soft agar colony-formation assay, HCT116", "type": "cell-based", "settings": "10 days", "procedure": "The soft agar colony-formation assay was performed using the CellTransformation Assays kit (catalog no. CBA-130; Cell Biolabs, Inc.) according to the recommended protocol. […] Medium containing drugs was replaced every 3 d. For the clonogenic assay, positively transfected cells (wild-type and mutant GFP-SHPRH and control GFP) were enriched by FACS and were seeded in six-well plates at a density of 3,000 cells per well. Medium was changed every 3 d. On the last day colony growth was quantified by crystal violet staining and measurement of OD at 590 nm."}, "[5]": {"test_system": "RKO cells", "assay": "EdU label release assay, RKO", "type": "cell-based", "settings": "5 μM, 3 days", "procedure": "Two days later, cells were seeded singly onto 12 mm glass coverslips in 24-well plates. One day after, EdU was detected using the Click-iT® Plus EdU Alexa Fluor 488 Imaging Kit (Life Technologies, C10637) according to the manufacturer's protocol. For double staining of EdU and other proteins, the EdU stained cells were further used for immunofluorescence staining as described above. Intensity of EdU staining in paired cells were quantified by Photoshop CS6 software, unequal EdU distribution was considered when paired cells had intensity ratio higher than 2."}, "[6]": {"test_system": "transgenic zebrafish", "assay": "Tailfin regeneration assay in adult TCF-GFP transgenic zebrafish", "settings": "5 μM"}, "[7]": {"test_system": "SW480-7TGC cells", "assay": "Wnt ACD assay", "type": "cell-based", "settings": "5 μM; never found in control cells", "text": "Unequal Wnt signaling was considered when paired cells had intensity ratio higher than 2."}, "[8]": {"test_system": "Wnt/β-catenin signaling", "assay": "TOPFlash reporter assay in 293FT cells", "type": "cell-based, human", "settings": "1 μM 6BIO together with drug at indicated concentrations, 24 hours", "procedure": "TOPFlash assay was performed in 96-well plate. For each well, 293T cells were transfected with 0.22 μg TOPFlash (or FOPFlash with mutant TCF binding sites) and 0.02 μg pRL-SV40P using lipofectamine 3000. For co-transfection with other plasmids, 0.1 μg additional DNA was used. […] The luciferase activity was measured 24 hours later by using Dual-Glo® Luciferase Assay System (Promega, E2940) according to the recommended protocol. The TOPFlash or FOPFlash activity was normalized to Renilla luciferase signals.\nTOPFlash assay was performed as described above. Briefly, for each well of a 96-well plate 293FT cells were transfected with 0.22 μg TOPFlash (or FOPFlash with mutant TCF binding sites) and 0.02 μg pRL-SV40P using lipofectamine 3000. For co-transfection with other plasmids, 0.1 μg additional DNA was used. Four hours after transfection, 293FT cells were treated with DMSO, 1 μM 6B10 and 1 μM 6B10 together with pazopanib, orlistat and topotecan at varying concentrations for 24 hours. The luciferase activity was then measured using Dual-Glo® Luciferase Assay System (Promega, E2940) according to the recommended protocol. The TOPFlash or FOPFlash activity was normalized to Renilla luciferase signals."}, "[9]": {"target": "T1, SHPRH (Homo sapiens, UniProt Q149N8)", "T1 construct": "endogenous in cells; host or cells: SW480", "T1 sequence (Q149N8 whole entry)": "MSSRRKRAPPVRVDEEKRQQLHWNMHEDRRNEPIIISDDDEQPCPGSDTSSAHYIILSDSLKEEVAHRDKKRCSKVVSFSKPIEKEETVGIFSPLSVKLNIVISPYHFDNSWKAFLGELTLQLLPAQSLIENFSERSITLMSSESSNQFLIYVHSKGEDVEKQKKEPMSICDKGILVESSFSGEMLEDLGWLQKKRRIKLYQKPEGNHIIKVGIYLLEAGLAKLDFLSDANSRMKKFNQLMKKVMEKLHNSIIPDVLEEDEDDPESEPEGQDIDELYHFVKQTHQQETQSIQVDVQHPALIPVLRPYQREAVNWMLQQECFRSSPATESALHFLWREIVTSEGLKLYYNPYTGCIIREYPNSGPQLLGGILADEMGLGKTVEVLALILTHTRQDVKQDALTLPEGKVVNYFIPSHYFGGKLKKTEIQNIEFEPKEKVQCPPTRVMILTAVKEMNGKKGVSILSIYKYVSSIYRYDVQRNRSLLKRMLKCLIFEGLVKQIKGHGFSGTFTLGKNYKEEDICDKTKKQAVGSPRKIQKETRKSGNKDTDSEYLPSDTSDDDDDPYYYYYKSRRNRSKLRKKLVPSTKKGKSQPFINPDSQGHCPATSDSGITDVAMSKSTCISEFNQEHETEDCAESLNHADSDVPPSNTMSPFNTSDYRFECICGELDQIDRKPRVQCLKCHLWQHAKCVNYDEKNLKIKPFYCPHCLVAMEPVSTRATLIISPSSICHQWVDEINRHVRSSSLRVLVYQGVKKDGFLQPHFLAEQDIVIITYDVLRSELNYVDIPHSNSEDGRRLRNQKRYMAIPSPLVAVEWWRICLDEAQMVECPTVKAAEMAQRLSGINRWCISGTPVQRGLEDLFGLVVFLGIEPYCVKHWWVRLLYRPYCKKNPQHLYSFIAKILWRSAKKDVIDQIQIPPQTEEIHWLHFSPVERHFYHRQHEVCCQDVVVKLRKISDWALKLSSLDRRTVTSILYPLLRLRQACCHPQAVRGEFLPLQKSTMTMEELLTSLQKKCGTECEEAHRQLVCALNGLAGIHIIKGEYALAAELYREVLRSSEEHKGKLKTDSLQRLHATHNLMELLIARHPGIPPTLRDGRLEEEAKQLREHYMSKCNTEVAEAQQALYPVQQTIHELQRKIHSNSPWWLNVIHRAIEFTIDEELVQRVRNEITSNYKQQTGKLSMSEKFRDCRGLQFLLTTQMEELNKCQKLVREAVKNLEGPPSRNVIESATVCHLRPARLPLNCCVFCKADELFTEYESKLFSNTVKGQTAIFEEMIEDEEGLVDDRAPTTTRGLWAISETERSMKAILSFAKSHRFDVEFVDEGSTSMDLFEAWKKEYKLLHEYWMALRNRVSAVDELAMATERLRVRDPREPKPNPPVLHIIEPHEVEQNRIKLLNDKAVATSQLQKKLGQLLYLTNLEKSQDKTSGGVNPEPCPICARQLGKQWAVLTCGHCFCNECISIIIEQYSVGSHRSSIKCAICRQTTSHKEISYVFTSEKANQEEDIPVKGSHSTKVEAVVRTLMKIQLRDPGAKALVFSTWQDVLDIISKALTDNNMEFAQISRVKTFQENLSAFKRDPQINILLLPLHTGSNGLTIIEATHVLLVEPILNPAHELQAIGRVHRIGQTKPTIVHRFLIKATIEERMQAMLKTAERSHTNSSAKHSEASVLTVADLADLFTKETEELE", "assay": "Cellular thermal shift assay (CETSA), SHPRH", "type": "binding", "settings": "SW480, 10 μM", "procedure": "CETSA in intact cells was performed according to the protocol previously described (Martinez Molina, D. et al., 2013, Science 341, 84-87). Briefly, SW480 cells were seeded equally in 2 T75 flasks and allowed to reach 80% confluence one day after. […] After trypsinization and PBS wash, cells were resuspended in 450 μl PBS containing freshly added protease inhibitors and equally divided between 7 tubes. Cells in each tube were heated at indicated temperatures for 3 minutes and kept at room temperature for 3 minutes. Heated cells were lysed by 3 cycles of freezing in liquid nitrogen (1 minute) and thawing in room temperature water (1 minute). The cell lysates were centrifuged at 20,000 g for 20 minutes at 4° C. The soluble fractions were isolated for Western blotting analysis."}}}
{"molecule": "CNC(=O)c1ccccc1Sc1ccc2c(/C=C/c3ccccn3)n[nH]c2c1", "note": "[axitinib, N-Methyl-2-[[3-[(E)-2-pyridin-2-ylethenyl]-1H-indazol-6-yl]sulfanyl]benzamide]", "values": [{"measurement": "cells with unequal distribution of nuclear β-catenin (β-catenin ACD)", "setting": "[1]", "value": "~19", "unit": "%"}, {"measurement": "phosphorylated and non-phospho (active) β-catenin (ABC)", "setting": "[2]; APC mutant SW480 cells, 24 hours", "value": "reduced"}, {"measurement": "β-catenin level (Western blots)", "setting": "[2]; SW480, dose course 24 hours, time course at 5 μM", "value": "dose and time dependent decrease"}, {"measurement": "ubiquitination of β-catenin", "setting": "[3]", "value": "increased its ubiquitination"}, {"measurement": "colony growth", "setting": "[4]", "value": "strongly and dose-dependently inhibited"}, {"measurement": "EdU ACD", "setting": "[5]", "value": "pre-treatment with 6B10 was required for EdU ACD induction"}, {"measurement": "tailfin regrowth and TCF-GFP activation", "setting": "[6]; 6 consecutive days", "value": "completely inhibited"}, {"measurement": "intestine: crypt-villus architecture and incorporation of BrdU", "setting": "[6]; 6 days", "value": "no significant change"}, {"measurement": "paired cells with unequal TCF-GFP expression (Wnt ACD)", "setting": "[7]", "value": "up to 10%"}, {"measurement": "TOPFlash activity normalized to Renilla luciferase activity", "setting": "[8]", "value": "dose dependently inhibits"}, {"measurement": "direct binding in intact living cells", "setting": "[9]", "value": "confirmed"}]}
